Data taken from ChEMBL document CHEMBL1157265, “Chaetoglobosin U, a cytochalasan alkaloid from endophytic Chaetomium globosum IFB-E019” (J Nat Prod, 2006).

Tested on: KB
Test: Cytotoxicity against human KB cells after 48 hrs by MTT assay
Format: functional, cell-based

| SMILES | IC50 [µM] |
| --- | --- |
| C/C1=C\[C@@H](C)C/C=C/[C@H]2[C@@H]3O[C@]3(C)[C@@H](C)[C@H]3[C@H](Cc4c[nH]c5ccccc45)NC(=O)[C@]32C(=O)CCC(=O)C1=O [CHAETOGLOBOSIN C] | 34 |
| CC1=C(C)[C@H]2[C@H](Cc3c[nH]c4ccccc34)NC(=O)[C@]23C(=O)CC[C@H](O)C(=O)/C(C)=C/[C@@H](C)C/C=C/[C@H]3[C@@H]1O [CHAETOGLOBOSIN E] | 40 |
| C/C1=C\[C@@H](C)C/C=C/[C@H]2[C@@H]3O[C@]3(C)[C@@H](C)[C@H]3[C@H](Cc4c[nH]c5ccccc45)NC(=O)[C@]32C(=O)CC[C@H](O)C1=O [CHAETOGLOBOSIN F] | 52 |
| CC1=C(O)C(=O)[C@@H]2CC(=O)[C@@]34C(=O)N[C@@H](Cc5c[nH]c6ccccc56)[C@@H]3[C@H](C)[C@@]3(C)O[C@H]3[C@@H]4/C=C/C[C@H](C)[C@@H]12 [CHAETOGLOBOSIN U] | 16 |
| C/C1=C\[C@@H](C)C/C=C/[C@H]2[C@@H]3O[C@]3(C)[C@@H](C)[C@H]3[C@H](Cc4c[nH]c5ccccc45)NC(=O)[C@]32c2ccc([nH]2)C(=O)C1=O [PENOCHALASIN A] | 48 |
